Patent US4849416A, “Treatment of conditions requiring enhanced oxygen availability to mammalian tissues” (Rorer Pharmaceutical Corporation, priority 1988, dated 1989)

Assays:
human red blood cells = test: Determination of 2,3-diphosphoglyceric acid content in human red blood cells; format: cell-based
Method: 2. Determination of 2,3-Diphosphoglyceric Acid Content in Human Red Blood Cells Blood samples from healthy subjects were collected in heparnized tubes and were centrifuged for 10 minutes at 400 xg. The plasma and buffy layer containing while cells and platelets was removed. The red blood cells were washed three times in Krebs Ringer Bicarbonate buffer supplemented with 2.5 mg/ml bovine serum albumin. The washed cells were suspended in the same buffer in a ratio of 1 cell to 4 buffer v/v. The cell suspension was incubated in siliconized glass beakers in the absence and presence of the test compound at 37° C. in air, supplemented with 5% v/v carbon dioxide. After incubation, 1 ml of the blood sample was mixed with 1 ml of 12% w/v trichloroacetic acid. The mixture was left at 4° C. for 10 minutes and then was clarified by centrifugation. The 2,3-DPG content in the supernatant was quantified using a Sigma assay kit based on the method described by Lowry et al, J. Biol. Chem. 239, 18, 1964. Inhibition of 2,3-diphosphoglyceric acid degredation in human red blood cells was also conducted on compounds of the present invention and is shown in Table II for sulfasalazine.

2,3-DPG phosphatase = target: T1, 2,3-DPG phosphatase (Homo sapiens, UniProt P07738); test: 2,3-Diphosphoglycerate phosphatase assay (radiochemical, release of 32P-phosphate from 2,3-DPG); format: biochemical; conditions: 110 μM 2,3-DPG, 5 μM phosphoglycolate, pH 7.5, 37° C., 20 minutes
T1 sequence (P07738 1-259): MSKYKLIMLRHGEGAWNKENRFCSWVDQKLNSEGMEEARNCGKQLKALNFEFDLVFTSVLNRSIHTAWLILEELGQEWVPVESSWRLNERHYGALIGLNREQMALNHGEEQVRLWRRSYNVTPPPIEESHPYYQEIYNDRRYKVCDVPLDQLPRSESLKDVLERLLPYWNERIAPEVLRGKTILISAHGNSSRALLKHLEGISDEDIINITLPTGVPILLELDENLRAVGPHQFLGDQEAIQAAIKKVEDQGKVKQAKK
Method: 1. 2,3-Diphosphoglycerate Phosphatase Assay
The activity of 2,3-DPG phosphatase was determined radiochemically using a method based on Rose et al., (J. Biol. Chem. 245, 3232-3241, 1970). In this method the activity of the phosphatase is measured by determining the release of inorganic phosphate from the substrate, 2,3-DPG. The test compounds were dissolved in dimethyl sulfoxide at 100 times the final concentration used and then added to the reaction mixture at the beginning of the assay period. In the control experiments equivalent concentration of dimethyl sulfoxide was used.
14 μg of 2,3-DPG phosphatase was incubated in 0.2 ml of N-tris-[Hydroxy-methyl]methyl-2-aminoethane-sulfonic acid [TES], at pH 7.5, containing 110 μM ^32 p-labeled 2,3-DPG (having a specific activity of 70 to 200 μCi/μmol), 5 μM phosphoglycolate and 5 μM mercaptoethanol at 37° C. for 20 minutes in the presence and absence of the test compound. at the end of incubation the reaction was stopped by the addition of 0.1 ml of 15% w/v trichloroacetic acid and the sample was centrifuged (Eppendorf microfuge, Model 5413) in order to remove protein preciptitates. Then 0.2 ml of the supernatant was withdrawn and mixed with 0.1 ml of 8 M sulfuric acid, 0.1 ml of 5% w/v ammonium molybdate and 0.6 ml of water. The mixture then was extracted with 2 ml of isobutanol/benzene (1:1,v/v) and then centrifuged to effect separation of the phases. 1 ml of the organic phase containing the extracted ^32 p-phosphate was counted in a scintillation counter (Beckman, Model LS 8,000) using a program for ^32 p radioactivity. The activity of the enzyme was expressed as number of mole phosphate released per minute.
From the data obtained using the radiochemical method, percent inhibition of 2,3-DPG phosphatase was calculated. […] Representative inhibitory activity is shown for sulfasalazine in Table I.

[1] = tested on: 2,3-diphosphoglycerate phosphatase; conditions: at optimal concentrations; cited from earlier work

SMILES	2,3-diphosphoglyceric acid content (human red blood cells; sulfasalazine 0.5 mM, incubation period 0 hrs, 37° C.)	2,3-diphosphoglyceric acid content (human red blood cells; sulfasalazine 0.5 mM, incubation period 3 hrs, 37° C. (control 3.7))	2,3-diphosphoglyceric acid content (human red blood cells; sulfasalazine 0.5 mM, incubation period 6 hrs, 37° C. (control 2.4))	2,3-diphosphoglyceric acid content (human red blood cells; sulfasalazine 1.0 mM, incubation period 0 hrs, 37° C.)	2,3-diphosphoglyceric acid content (human red blood cells; sulfasalazine 1.0 mM, incubation period 3 hrs, 37° C. (control 3.7))	2,3-diphosphoglyceric acid content (human red blood cells; sulfasalazine 1.0 mM, incubation period 6 hrs, 37° C. (control 2.4))	inhibition at 20 µM (2,3-DPG phosphatase; sulfasalazine 20 μM)	inhibition at 100 µM (2,3-DPG phosphatase; sulfasalazine 100 μM)	inhibition at 500 µM (2,3-DPG phosphatase; sulfasalazine 500 μM)	inhibition at 1000 µM (2,3-DPG phosphatase; sulfasalazine 1000 μM)	enhancement of the activity of 2,3-diphosphoglycerate phosphatase [1]
O=C(O)c1cc(N=Nc2ccc(S(=O)(=O)Nc3ccccn3)cc2)ccc1O [sulfasalazine, 5-[[p-(2-pyridylsulfamoyl)phenyl]azo]salicyclic acid]	4.4 μmole/ml RBC	3.9 μmole/ml RBC	3.0 μmole/ml RBC	4.4 μmole/ml RBC	4.1 μmole/ml RBC	3.5 μmole/ml RBC	23%	57%	86%	90%	
O=C(O)COP(=O)(O)O [2-Phosphoglycolate]											about 1600 fold
